From PMC3409115, “Diverse Inhibitor Chemotypes Targeting Trypanosoma cruzi CYP51” (PLoS Neglected Tropical Diseases, 2012)
Entries after “also recorded” stand apart in the source; their conditions may differ. Where two headings read alike, the source gives them in different places.

Tests used:
[1] = test system: sterol biosynthesis in T. cruzi amastigotes; assay: Lipid analysis of T. cruzi amastigotes (GC-MS of membrane sterols); type: cell-based, Trypanosoma cruzi; details: amastigotes in C2C12 myoblasts, 24 h drug treatment, concentrations 5x below cidal; posaconazole 100 nM
Method: To grow intracellular amastigotes for lipid analysis, C2C12 mouse skeletal myoblasts (4×10^6 cells) cultured in 150 cm^2 flasks as described above were infected with 80×10^6 trypomastigotes for 24 h. The cultures were treated with test compounds 72 h post-infection at concentrations 5× below cidal to avoid completely killing the parasites. Posaconazole at 100 nM was used as a positive control. […] Cells were harvested 96 h post-infection and after 24 h of drug treatment. Cell detachment was initiated by brief treatment with 10 ml of 0.25% trypsin in PBS, followed promptly by replacement with 10 ml of fresh media containing FBS. Harvested cells were washed 3× with 25 ml of PBS to remove FBS and released trypomastigotes. The suspension of infected cells was then transferred to a glass tube and centrifuged at 2000 rpm for 5 min. After washing with PBS, 2 ml of chloroform-methanol solution (2∶1 ratio) was added to re-suspend the cell pellet. Organic solvents were then evaporated under N2 flow, allowing the pellet to dry.
For total lipid extraction, the dry cell pellet was treated with 2 ml chloroform for 24 h. Polar molecules were removed by washing the organic phase 3× with 3 ml water. The organic phase containing the sterols was subsequently dried on an evaporator under N2 flow. The lipids were re-suspended in 2 ml of chloroform-methanol (9∶1 ratio), washed again 3× with 3 ml water, dried under N2 flow and re-suspended in acetonitrile. After an additional wash 3× with 3 ml water, the acetonitrile was dried under an N2 stream. Extracted dry sterols were re-dissolved in hexane and derivatized with N,N-bis(trimethylsilyl)-2,2,2-trifluoroacetamide (BSTFA) (Pierce) by incubating at 37°C for at least 2 hours. Sterols as their trimethylsilyl (TMS) derivatives were analyzed by gas chromatography and mass spectrometry (GC-MS). GC-MS analysis and lipid identification were performed as described previously.

T. cruzi CYP51 = target: T1, T. cruzi CYP51 (Trypanosoma cruzi, UniProt Q7Z1V1); assay: Low throughput UV-vis binding assay; details: for Binding to CYP51 by UV-vis titration (in words): 0.5 µM CYP51
T1 construct: had the first 21 residues upstream of K22 replaced with the fragment MAKKKKK; His6 (C); made in house
Method: Hit validation in the low throughput UV-vis binding assay was performed according to a previously published but somewhat modified protocol. UV-vis absorption spectra were recorded on a Cary scanning spectrophotometer (Varian) in the 1-cm path length quartz cuvette at 23°C in 100 mM potassium phosphate buffer, pH 7.5, containing 10% glycerol, with CYP51 concentration of 0.5 µM. Compound solutions used for titration were prepared in DMSO at 100 µM and added in 2-µl aliquots to each 3 ml sample using a P2 pipetman (Gilson). Binding affinity of hits was estimated using the quadratic tight-binding equation [27]: […]
where Aobs is the absorption shift determined at any ligand concentration; Amax is the maximal absorption shift obtained at saturation; KD is dissociation constant for the inhibitor-enzyme complex; S is the ligand concentration; Et is the total enzyme concentration.

T1 sequence (Q7Z1V1 15-481, looked up, natural form): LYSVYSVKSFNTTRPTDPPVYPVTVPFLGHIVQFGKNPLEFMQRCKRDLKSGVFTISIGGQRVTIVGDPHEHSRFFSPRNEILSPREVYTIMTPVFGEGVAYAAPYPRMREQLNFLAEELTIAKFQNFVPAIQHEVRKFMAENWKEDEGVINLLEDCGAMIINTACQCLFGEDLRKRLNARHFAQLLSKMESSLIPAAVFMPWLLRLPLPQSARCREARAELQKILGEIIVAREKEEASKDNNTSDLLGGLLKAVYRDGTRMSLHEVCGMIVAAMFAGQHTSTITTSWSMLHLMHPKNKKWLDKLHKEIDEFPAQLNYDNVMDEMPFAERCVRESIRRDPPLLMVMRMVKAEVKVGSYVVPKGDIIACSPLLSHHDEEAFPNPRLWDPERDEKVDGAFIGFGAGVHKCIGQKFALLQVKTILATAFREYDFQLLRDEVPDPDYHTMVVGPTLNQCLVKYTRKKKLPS

SMILES | Effect on membrane sterol composition by GC-MS [1] | Kd (T. cruzi CYP51) | Binding to CYP51 by UV-vis titration (in words) (T. cruzi CYP51) | Kd (T. cruzi CYP51; UV-vis titration, 0.5 µM CYP51, quadratic tight-binding equation, lower limit of method ~5 nM, read-out: KD)
O=C(c1ccc(Cl)cc1)C(Oc1ccc(Cl)cc1)n1cncn1 (stereo not drawn) [Compound 13, 2-(4-chlorophenoxy)-1-(4-chlorophenyl)-2-(1H-1,2,4-triazol-1-yl)ethanone] | present in amounts comparable to those of 14-demethylated products; also recorded: increase in lanosterol and eburicol precursors and a concomitant decline in episterol, fecosterol and other 14-demethylated intermediates | ≤ 5 nM | binds and saturates CYP51 at equimolar 0.5 µM concentrations | –
Brc1ccccc1OCCCCCCn1ccnc1 [Compound 1] | lanosterol (f) and eburicol (h) dominated the GC-MS traces; also recorded: fecosterol (e) was completely inhibited; also recorded: suppressed sterol biosynthesis in T. cruzi amastigotes more efficiently than posaconazole | – | at least low nanomolar binding affinity | ≤ 5 nM
